Measured values published in ChEMBL document CHEMBL5442175, “EUbOPEN Chemogenomics Library - PDSP Secondary Binding” (2024).

Columns and labels:
[1] = target: 5-hydroxytryptamine receptor 1B (Homo sapiens, UniProt P28222); assay: (§1) PDSP Secondary Binding target: HTR1B - Compounds are tested at 10 uM concentration, plate are incubated at room temperature in the dark for 90 minutes. Reaction are stopped by vacuum filtration onto 0.3% polyethyleneimine soaked filter mats using Filtermate harvester. Scintillation cocktail is then melted onto microwave-dried filters on a hot plate and the radio activity is counted in Microbia counter.
Chain of 5-hydroxytryptamine receptor 1B (P28222 whole entry): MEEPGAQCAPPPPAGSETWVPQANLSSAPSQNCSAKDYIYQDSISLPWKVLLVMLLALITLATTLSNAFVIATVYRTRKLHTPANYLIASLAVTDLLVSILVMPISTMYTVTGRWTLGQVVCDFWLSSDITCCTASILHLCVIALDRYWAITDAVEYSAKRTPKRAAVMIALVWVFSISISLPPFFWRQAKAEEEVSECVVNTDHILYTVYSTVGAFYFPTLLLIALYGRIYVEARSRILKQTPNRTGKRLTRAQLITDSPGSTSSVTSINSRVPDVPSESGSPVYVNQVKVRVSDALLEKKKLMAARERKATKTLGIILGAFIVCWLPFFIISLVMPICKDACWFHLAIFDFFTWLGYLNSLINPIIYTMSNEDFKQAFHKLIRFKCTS

[2] = target: T1, 5-hydroxytryptamine receptor 3A (Homo sapiens, UniProt P46098); assay: as §1, with “HTR3A” for “HTR1B”
T1 sequence (P46098 whole entry): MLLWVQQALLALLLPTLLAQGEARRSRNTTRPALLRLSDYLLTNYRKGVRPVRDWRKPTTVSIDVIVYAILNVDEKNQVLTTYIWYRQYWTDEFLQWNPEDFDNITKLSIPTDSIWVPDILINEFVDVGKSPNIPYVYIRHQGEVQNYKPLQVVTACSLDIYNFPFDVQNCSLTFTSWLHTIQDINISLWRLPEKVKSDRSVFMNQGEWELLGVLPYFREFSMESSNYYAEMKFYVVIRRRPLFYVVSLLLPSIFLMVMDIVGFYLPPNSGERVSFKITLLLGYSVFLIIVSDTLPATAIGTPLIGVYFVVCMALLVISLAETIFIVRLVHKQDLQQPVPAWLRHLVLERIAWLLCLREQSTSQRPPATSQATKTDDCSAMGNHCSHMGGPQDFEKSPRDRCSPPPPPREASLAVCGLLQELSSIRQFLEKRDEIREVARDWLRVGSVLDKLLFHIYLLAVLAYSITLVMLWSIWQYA

[3] = target: T2, Muscarinic acetylcholine receptor M4 (Homo sapiens, UniProt P08173); assay: as §1, with “CHRM4” for “HTR1B”
T2 sequence (P08173 whole entry): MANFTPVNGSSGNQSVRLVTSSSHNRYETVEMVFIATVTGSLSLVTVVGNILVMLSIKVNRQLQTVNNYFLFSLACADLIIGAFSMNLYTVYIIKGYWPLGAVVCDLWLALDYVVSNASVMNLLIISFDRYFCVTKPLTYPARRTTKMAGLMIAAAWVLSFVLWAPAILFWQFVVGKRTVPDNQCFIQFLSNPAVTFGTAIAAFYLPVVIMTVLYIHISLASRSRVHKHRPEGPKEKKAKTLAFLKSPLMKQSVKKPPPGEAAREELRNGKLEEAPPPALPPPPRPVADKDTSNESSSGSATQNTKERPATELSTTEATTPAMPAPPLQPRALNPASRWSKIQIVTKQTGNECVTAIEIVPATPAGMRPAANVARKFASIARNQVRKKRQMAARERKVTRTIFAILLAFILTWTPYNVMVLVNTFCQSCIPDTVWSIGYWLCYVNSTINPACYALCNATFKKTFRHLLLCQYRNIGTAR

[4] = target: 5-hydroxytryptamine receptor 2B (Homo sapiens, UniProt P41595); assay: as §1, with “HTR2B” for “HTR1B”
Chain of 5-hydroxytryptamine receptor 2B (P41595 whole entry): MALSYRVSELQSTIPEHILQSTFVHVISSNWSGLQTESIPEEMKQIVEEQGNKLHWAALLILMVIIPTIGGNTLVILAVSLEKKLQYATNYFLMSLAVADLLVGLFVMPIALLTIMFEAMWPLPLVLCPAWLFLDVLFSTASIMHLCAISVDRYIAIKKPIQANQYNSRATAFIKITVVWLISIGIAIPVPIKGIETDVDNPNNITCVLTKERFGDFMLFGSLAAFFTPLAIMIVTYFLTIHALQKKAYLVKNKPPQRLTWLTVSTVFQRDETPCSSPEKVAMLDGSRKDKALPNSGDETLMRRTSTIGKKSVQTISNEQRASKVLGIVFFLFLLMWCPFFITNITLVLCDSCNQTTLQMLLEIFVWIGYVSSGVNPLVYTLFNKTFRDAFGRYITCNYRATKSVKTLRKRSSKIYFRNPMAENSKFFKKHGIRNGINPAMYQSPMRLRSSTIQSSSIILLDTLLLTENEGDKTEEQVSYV

[5] = target: T3, Alpha-2A adrenergic receptor (Homo sapiens, UniProt P08913); assay: as §1, with “ADRA2A” for “HTR1B”
T3 sequence (P08913 whole entry): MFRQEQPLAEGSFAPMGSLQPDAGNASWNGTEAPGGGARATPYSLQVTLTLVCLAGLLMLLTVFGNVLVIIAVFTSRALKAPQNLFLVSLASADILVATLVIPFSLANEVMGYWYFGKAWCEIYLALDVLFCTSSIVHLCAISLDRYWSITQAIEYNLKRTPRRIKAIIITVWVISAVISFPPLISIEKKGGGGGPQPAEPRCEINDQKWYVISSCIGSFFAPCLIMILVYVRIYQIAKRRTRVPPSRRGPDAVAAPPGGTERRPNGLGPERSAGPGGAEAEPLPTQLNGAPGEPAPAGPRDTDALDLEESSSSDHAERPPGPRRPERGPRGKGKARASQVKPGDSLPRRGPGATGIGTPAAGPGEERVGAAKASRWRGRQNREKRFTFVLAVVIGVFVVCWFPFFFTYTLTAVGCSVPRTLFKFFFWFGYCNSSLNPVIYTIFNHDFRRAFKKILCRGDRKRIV

Histamine H2 receptor = Histamine H2 receptor (Homo sapiens, UniProt P25021); assay: as §1, with “HRH2” for “HTR1B”
Chain of Histamine H2 receptor (P25021 whole entry): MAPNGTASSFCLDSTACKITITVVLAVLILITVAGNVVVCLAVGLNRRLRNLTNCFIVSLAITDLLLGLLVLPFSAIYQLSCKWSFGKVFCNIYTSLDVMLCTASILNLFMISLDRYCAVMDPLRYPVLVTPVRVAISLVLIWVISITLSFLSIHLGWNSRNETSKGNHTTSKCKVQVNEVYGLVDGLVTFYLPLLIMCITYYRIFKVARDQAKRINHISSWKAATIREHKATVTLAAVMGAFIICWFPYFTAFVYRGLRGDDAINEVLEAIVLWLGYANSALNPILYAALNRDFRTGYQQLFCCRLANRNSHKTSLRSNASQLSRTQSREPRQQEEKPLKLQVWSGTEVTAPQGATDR

[6] = target: Sodium-dependent noradrenaline transporter (Homo sapiens, UniProt P23975); assay: as §1, with “SLC6A2” for “HTR1B”
Chain of Sodium-dependent noradrenaline transporter (P23975 whole entry): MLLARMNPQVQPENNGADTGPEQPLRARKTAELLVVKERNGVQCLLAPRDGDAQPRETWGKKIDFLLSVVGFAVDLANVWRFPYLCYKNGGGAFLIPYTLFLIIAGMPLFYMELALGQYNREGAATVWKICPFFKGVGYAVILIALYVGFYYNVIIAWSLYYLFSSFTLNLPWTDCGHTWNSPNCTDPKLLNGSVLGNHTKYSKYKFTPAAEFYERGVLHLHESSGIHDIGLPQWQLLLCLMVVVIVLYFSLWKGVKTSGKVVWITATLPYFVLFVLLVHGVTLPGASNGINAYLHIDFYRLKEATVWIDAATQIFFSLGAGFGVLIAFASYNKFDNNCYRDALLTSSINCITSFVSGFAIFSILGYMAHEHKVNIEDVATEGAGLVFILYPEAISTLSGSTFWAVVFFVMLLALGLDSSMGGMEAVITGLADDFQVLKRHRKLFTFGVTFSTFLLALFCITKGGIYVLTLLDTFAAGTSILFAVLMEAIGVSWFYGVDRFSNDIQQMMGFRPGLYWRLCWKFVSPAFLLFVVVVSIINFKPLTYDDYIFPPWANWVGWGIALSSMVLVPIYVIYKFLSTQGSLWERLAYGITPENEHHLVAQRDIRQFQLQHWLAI

[7] = target: T4, Alpha-2B adrenergic receptor (Homo sapiens, UniProt P18089); assay: as §1, with “ADRA2B” for “HTR1B”
T4 sequence (P18089 whole entry): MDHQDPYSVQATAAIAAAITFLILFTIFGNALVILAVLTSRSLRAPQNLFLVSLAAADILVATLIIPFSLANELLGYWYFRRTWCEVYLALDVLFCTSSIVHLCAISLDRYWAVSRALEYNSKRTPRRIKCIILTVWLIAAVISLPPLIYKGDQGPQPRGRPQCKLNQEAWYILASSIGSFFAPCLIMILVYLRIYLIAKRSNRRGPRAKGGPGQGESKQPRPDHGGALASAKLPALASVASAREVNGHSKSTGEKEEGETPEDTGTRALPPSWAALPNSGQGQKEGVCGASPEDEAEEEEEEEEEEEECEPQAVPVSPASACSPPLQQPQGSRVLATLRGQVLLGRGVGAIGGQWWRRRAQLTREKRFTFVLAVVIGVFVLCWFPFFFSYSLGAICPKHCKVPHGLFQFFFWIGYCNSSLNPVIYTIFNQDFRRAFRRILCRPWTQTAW

[8] = target: Sodium-dependent dopamine transporter (Homo sapiens, UniProt Q01959); assay: as §1, with “SLC6A3” for “HTR1B”
Chain of Sodium-dependent dopamine transporter (Q01959 whole entry): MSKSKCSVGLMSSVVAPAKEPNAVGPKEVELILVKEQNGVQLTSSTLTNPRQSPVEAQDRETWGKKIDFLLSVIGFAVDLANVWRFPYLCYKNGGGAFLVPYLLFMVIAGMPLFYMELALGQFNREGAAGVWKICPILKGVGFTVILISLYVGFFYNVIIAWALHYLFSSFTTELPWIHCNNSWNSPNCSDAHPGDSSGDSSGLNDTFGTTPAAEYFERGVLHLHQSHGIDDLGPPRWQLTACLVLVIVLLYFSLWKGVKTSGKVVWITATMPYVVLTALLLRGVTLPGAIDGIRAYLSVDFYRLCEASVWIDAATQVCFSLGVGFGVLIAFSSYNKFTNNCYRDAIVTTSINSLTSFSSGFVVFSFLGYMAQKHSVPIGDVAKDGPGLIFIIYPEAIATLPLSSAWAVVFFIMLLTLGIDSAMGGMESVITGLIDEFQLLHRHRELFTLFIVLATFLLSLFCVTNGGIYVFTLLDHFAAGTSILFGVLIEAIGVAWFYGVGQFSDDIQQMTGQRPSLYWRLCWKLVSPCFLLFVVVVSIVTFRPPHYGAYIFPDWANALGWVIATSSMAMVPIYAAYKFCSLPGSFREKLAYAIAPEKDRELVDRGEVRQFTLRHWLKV

Mu-type opioid receptor = Mu-type opioid receptor (Homo sapiens, UniProt P35372); assay: as §1, with “OPRM1” for “HTR1B”
Chain of Mu-type opioid receptor (P35372 whole entry): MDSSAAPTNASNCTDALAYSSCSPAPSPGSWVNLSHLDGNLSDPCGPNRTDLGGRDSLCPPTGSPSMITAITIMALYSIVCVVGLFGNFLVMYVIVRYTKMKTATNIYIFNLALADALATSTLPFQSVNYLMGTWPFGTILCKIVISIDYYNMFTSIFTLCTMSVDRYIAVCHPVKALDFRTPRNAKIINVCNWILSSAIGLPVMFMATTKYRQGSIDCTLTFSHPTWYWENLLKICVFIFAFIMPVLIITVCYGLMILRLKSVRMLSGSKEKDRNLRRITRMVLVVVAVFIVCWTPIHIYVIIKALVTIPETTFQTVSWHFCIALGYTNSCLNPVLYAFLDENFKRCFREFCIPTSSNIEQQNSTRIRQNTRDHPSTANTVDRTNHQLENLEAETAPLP

[9] = target: Kappa-type opioid receptor (Homo sapiens, UniProt P41145); assay: as §1, with “OPRK1” for “HTR1B”
Chain of Kappa-type opioid receptor (P41145 whole entry): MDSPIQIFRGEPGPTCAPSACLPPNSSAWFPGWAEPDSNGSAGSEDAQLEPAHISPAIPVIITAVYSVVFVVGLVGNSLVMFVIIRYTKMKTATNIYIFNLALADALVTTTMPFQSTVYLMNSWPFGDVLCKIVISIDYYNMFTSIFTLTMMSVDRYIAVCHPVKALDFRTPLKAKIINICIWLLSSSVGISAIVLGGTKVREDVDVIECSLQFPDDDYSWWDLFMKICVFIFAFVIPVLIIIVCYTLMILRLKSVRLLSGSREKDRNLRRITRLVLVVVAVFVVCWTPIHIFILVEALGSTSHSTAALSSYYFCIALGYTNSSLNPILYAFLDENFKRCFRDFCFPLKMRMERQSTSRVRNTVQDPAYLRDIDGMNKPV

[10] = target: T5, Alpha-2C adrenergic receptor (Homo sapiens, UniProt P18825); assay: as §1, with “ADRA2C” for “HTR1B”
T5 sequence (P18825 whole entry): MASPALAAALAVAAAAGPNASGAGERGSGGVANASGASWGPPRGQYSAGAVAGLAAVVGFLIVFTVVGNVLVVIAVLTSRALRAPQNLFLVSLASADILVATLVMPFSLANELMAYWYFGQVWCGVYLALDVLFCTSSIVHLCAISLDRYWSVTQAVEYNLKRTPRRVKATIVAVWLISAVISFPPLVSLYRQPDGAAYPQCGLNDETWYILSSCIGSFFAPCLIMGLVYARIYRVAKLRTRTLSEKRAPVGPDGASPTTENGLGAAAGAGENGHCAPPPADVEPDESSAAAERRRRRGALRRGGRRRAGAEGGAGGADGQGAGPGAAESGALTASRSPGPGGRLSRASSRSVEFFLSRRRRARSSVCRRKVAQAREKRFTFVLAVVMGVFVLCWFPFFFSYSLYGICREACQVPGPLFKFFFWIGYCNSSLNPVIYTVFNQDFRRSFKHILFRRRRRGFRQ

[11] = target: Muscarinic acetylcholine receptor M3 (Homo sapiens, UniProt P20309); assay: as §1, with “CHRM3” for “HTR1B”
Chain of Muscarinic acetylcholine receptor M3 (P20309 whole entry): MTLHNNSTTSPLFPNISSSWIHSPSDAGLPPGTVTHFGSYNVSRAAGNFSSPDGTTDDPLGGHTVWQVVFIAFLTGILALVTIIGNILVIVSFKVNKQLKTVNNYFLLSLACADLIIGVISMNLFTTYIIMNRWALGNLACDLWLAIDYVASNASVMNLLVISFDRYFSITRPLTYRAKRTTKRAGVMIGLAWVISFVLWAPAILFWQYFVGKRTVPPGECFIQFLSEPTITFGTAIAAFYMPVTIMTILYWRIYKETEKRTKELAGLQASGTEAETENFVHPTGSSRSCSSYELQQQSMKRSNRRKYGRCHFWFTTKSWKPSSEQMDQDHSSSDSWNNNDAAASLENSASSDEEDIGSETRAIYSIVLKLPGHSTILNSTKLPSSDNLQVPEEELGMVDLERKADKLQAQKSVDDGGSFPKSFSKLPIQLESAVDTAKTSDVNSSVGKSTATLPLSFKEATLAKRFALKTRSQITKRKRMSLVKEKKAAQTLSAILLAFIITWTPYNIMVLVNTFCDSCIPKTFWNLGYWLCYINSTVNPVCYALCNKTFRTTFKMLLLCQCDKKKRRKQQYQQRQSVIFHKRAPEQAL

Ki [1]: 2160 nM
Ki [2]: 1660 nM
Ki [3]: 46.9 nM
Ki [4]: 500 nM
Ki [5]: 767 nM
Ki (Histamine H2 receptor): 2840 nM
Ki [6]: 2850 nM
Ki [7]: 3230 nM
Ki [8]: 673 nM
Ki (Mu-type opioid receptor): 1130 nM
Ki [9]: 1940 nM
Ki [10]: 585 nM
Ki [11]: 173 nM
Compound: CCOC(=O)c1c(C)[nH]c2ccc3c(c12)CN1CCc2cc(OC)ccc2C1O3 (stereo not drawn)
